Experimental data reported in patent US20030055405A1, “Iontophoretic Drug Delivery Device and Reservoir and Method of Making Same” (Vyteris, Inc., priority 1993, published 2003).

Test: Shelf stability of the loaded reservoir electrode assembly in storage
Type: physicochemical
Conditions: incorporated into the reservoir
Excerpt: In the present example, an aqueous loading solution of 30% lidocaine HCI, 3% epinephrine, 30% glycerin, 0.05% sodium metabisulfite, 0.03% ethylene diamine tetraacetic acid, and 0.06% citric acid are used for the loading solution. The medicaments for delivery are lidocaine HCI and epinephrine, the glycerin serves as a humectant, the other minor components serve to enhance drug stability by chelating metal ions and serving as antioxidants. In order to load this solution onto the reservoir with electrode 112, laminate release liner 132 is removed from side 118 of reservoir 114 and a three-hundred microliter aliquot of this loading solution is applied to exposed surface 118, which is then covered with a final cover that remains in place until the reservoir is applied to a patient to protect the reservoir.

shelf stability of labile medicament: satisfactory shelf stability
Structure (SMILES): CNC[C@H](O)c1ccc(O)c(O)c1 [epinephrine, Epinephrine Bitartrate]
